Measured values published in ChEMBL document CHEMBL1142260, “Acylguanidine inhibitors of beta-secretase: optimization of the pyrrole ring substituents extending into the S1' substrate binding pocket” (Bioorg Med Chem Lett, 2008).
pIC50: −log10 of the molar value.

How the values were obtained:
Beta-secretase 1 [1] = biological target: T1, Beta-secretase 1 (Homo sapiens, UniProt P56817); settings: CHO
[2] = Selectivity for BACE1 over cathepsin D
Cathepsin D = Cathepsin D (Homo sapiens, UniProt P07339); assay: Inhibition of cathepsin D
Beta-secretase 1 [3] = biological target: T1, Beta-secretase 1; assay: Inhibition of BACE1
CHO = assay: Cytotoxicity against human CHO cells; type: functional; settings: Cricetulus griseus, read-out: LD50 (the source's name)
Beta-secretase 1 [4] = biological target: T1, Beta-secretase 1; assay: Inhibition of BACE1 at 2 uM

Sequence of Cathepsin D (P07339 65-162 limits assumed): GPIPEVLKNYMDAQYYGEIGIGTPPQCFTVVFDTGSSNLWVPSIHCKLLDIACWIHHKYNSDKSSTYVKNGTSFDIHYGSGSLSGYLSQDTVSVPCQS
Sequence of Cathepsin D (P07339 169-412 limits assumed): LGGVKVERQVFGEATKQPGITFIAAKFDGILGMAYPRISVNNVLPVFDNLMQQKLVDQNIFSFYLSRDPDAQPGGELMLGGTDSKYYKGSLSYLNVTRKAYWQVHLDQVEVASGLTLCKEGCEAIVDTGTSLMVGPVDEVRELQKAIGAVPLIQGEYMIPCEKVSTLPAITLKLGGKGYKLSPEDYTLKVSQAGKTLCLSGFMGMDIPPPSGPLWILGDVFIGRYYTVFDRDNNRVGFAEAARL
T1 sequence (P56817 whole entry): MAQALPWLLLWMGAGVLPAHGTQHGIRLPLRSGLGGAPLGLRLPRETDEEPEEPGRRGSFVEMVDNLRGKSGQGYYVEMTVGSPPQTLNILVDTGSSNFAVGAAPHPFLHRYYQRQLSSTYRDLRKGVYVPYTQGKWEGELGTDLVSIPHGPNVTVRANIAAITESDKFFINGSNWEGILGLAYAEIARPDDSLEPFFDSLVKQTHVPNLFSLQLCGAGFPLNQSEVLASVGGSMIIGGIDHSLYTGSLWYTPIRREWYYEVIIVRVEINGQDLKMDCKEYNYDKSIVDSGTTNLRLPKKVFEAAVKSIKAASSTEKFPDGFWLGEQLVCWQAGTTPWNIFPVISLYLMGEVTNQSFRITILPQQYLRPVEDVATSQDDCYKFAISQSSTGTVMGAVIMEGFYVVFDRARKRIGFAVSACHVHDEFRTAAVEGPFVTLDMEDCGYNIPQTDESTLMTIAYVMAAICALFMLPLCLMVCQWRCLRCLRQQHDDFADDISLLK

Row | SMILES | ED50 (Beta-secretase 1 [1]) [µM] | Ratio IC50 [2] | pIC50 (Cathepsin D) | pIC50 (Beta-secretase 1 [3]) | CC50 (CHO) [µM] | inhibition (Beta-secretase 1 [4]) [%]
1 | N#CCCN/C(N)=N\C(=O)Cn1c(-c2ccccc2)ccc1C12CC3CC(CC(C3)C1)C2 | 3.44 | 39 | 4.91 | 6.51 | 16 | –
2 | N#CCCCN/C(N)=N\C(=O)Cn1c(-c2ccccc2)ccc1C12CC3CC(CC(C3)C1)C2 | 4.4 | 17 | – | – | 59 | –
3 | CCCOc1ccc(-c2ccc(-c3ccccc3Cl)n2CC(=O)/N=C(/N)N[C@H]2CC[C@H](O)CC2)cc1 | 1.28 | 110 | – | 6.90 | – | –
4 | Cc1csc(CN/C(N)=N\C(=O)Cn2c(-c3ccccc3)ccc2C23CC4CC(CC(C4)C2)C3)n1 | 3.97 | – | – | – | 8 | –
5 | CCCOc1ccc(-c2ccc(-c3ccccc3Cl)n2CC(=O)NC(=N)NCCC(=O)O)cc1 | – | – | – | 6.56 | – | –
6 | CCCOc1ccc(-c2ccc(-c3ccccc3Cl)n2CC(=O)/N=C(/N)NCC(C)(C)CO)cc1 | 5.27 | 15 | – | 6.69 | – | –
7 | CCCOc1ccc(-c2ccc(-c3ccccc3Cl)n2CC(=O)/N=C(/N)NCC(O)CO)cc1 (centres undefined) | 5.27 | 81 | – | 6.91 | – | –
8 | NC(N)=NC(=O)Cn1c(-c2ccccc2)ccc1C12CC3CC(CC(C3)C1)C2 | 8.9 | 69 | 4.60 | – | > 25 | –
9 | CCCOc1ccc(-c2ccc(-c3ccccc3Cl)n2CC(=O)/N=C(/N)NCCCSC)cc1 | 1.23 | 3.9 | – | 6.49 | – | –
10 | CCCOc1ccc(-c2ccc(-c3ccccc3Cl)n2CC(=O)/N=C(/N)NCCCO)cc1 | 1.18 | 85 | – | – | – | –
11 | N/C(=N/C(=O)Cn1c(-c2ccccc2)ccc1C12CC3CC(CC(C3)C1)C2)NCCCn1ccnc1 | 9.16 | > 15 | – | – | 45 | –
12 | C[C@@H](O)CN/C(N)=N\C(=O)Cn1c(-c2ccccc2)ccc1C12CC3CC(CC(C3)C1)C2 | 9.51 | 28 | 4.90 | 6.36 | 79 | –
13 | CCCOc1ccc(-c2ccc(-c3ccccc3Cl)n2CC(=O)NC(=N)NCCCO)cc1 | – | – | – | 6.92 | – | –
14 | N=C(NCC(O)CO)NC(=O)Cn1c(-c2ccccc2)ccc1C12CC3CC(CC(C3)C1)C2 (centres undefined) | – | – | 4.13 | 6.27 | – | –
15 | CCCOc1ccc(-c2ccc(-c3ccccc3Cl)n2CC(=O)/N=C(/N)NCc2ccc(F)c(F)c2F)cc1 | 5.27 | 0.5 | – | – | – | –
16 | CCCOc1ccc(-c2ccc(-c3ccccc3Cl)n2CC(=O)/N=C(/N)NCCCC(=O)O)cc1 | – | 45 | – | 6.89 | – | –
17 | N/C(=N/C(=O)Cn1c(-c2ccccc2)ccc1C12CC3CC(CC(C3)C1)C2)NCCCO | 1.84 | 83 | 4.70 | – | 35 | –
18 | CCCOc1ccc(-c2ccc(-c3ccccc3Cl)n2CC(=O)/N=C(/N)NCCC(=O)O)cc1 | – | > 45 | – | – | – | –
19 | Cc1csc(CNC(=N)NC(=O)Cn2c(-c3ccccc3)ccc2C23CC4CC(CC(C4)C2)C3)n1 | – | – | 6.84 | – | – | –
20 | C[C@H](O)CNC(=N)NC(=O)Cn1c(-c2ccccc2)ccc1C12CC3CC(CC(C3)C1)C2 | – | – | 4.27 | 6.03 | – | –
21 | N=C(NC(=O)Cn1c(-c2ccccc2)ccc1C12CC3CC(CC(C3)C1)C2)NC1CCCCC1 | – | – | 4.27 | 5.14 | – | –
22 | CCCOc1ccc(-c2ccc(-c3ccccc3Cl)n2CC(=O)/N=C(/N)NCc2ccc(O)c(OC)c2)cc1 | 5.45 | 1 | – | 6.19 | – | –
23 | N/C(=N/C(=O)Cn1c(-c2ccccc2)ccc1C12CC3CC(CC(C3)C1)C2)NCc1cccc(N)c1 | 4.81 | 1.9 | – | – | 8 | –
24 | N=C(NCCCn1ccnc1)NC(=O)Cn1c(-c2ccccc2)ccc1C12CC3CC(CC(C3)C1)C2 | – | – | < 4.60 | 5.77 | – | –

Row | SMILES | ED50 (Beta-secretase 1 [1]) [µM] | Ratio IC50 [2] | pIC50 (Cathepsin D) | pIC50 (Beta-secretase 1 [3]) | CC50 (CHO) [µM] | inhibition (Beta-secretase 1 [4]) [%]
25 | CCCOc1ccc(-c2ccc(-c3ccccc3Cl)n2CC(=O)/N=C(/N)NCCCn2ccnc2)cc1 | 3.1 | 30 | – | 6.62 | – | –
26 | N/C(=N\C(=O)Cn1c(-c2ccccc2)ccc1C12CC3CC(CC(C3)C1)C2)NCCCCO | – | – | 5.19 | 6.59 | – | –
27 | N/C(=N/C(=O)Cn1c(-c2ccccc2)ccc1C12CC3CC(CC(C3)C1)C2)NCCc1ccsc1 | 1.69 | – | – | – | 2 | –
28 | CCCOc1ccc(-c2ccc(-c3ccccc3Cl)n2CC(=O)NC(=N)NCc2ccco2)cc1 | – | – | – | 6.25 | – | –
29 | CCCOc1ccc(-c2ccc(-c3ccccc3Cl)n2CC(=O)/N=C(/N)NCCC2OCCO2)cc1 | 1.34 | 13 | – | 6.57 | – | –
30 | CCCOc1ccc(-c2ccc(-c3ccccc3Cl)n2CC(=O)/N=C(/N)NCc2ccco2)cc1 | 9.1 | 2.5 | – | – | – | –
31 | N/C(=N/C(=O)Cn1c(-c2ccccc2)ccc1C12CC3CC(CC(C3)C1)C2)N[C@H]1CC[C@H](O)CC1 | 1.44 | – | – | 6.55 | 14 | –
32 | CCCOc1ccc(-c2ccc(-c3ccccc3Cl)n2CC(=O)/N=C(/N)NCCCC(N)=O)cc1 | 4.14 | 70 | – | 6.86 | – | –
33 | CCCOc1ccc(-c2ccc(-c3ccccc3Cl)n2CC(=O)/N=C(/N)NCCC(N)=O)cc1 | – | 55 | – | – | – | –
34 | N=C(NCCc1ccsc1)NC(=O)Cn1c(-c2ccccc2)ccc1C12CC3CC(CC(C3)C1)C2 | – | – | 6.22 | – | – | –
35 | N/C(=N/C(=O)Cn1c(-c2ccccc2)ccc1C12CC3CC(CC(C3)C1)C2)NCC(O)CO (centres undefined) | 21.1 | 137 | – | – | 88 | –
36 | C[C@H](O)CN/C(N)=N\C(=O)Cn1c(-c2ccccc2)ccc1C12CC3CC(CC(C3)C1)C2 | 17.8 | 57 | – | – | 100 | –
37 | N/C(=N/C(=O)Cn1c(-c2ccccc2)ccc1C12CC3CC(CC(C3)C1)C2)NCCO | 3.62 | 36 | 4.61 | 6.17 | 25 | –
38 | N=C(NCc1cccc(N)c1)NC(=O)Cn1c(-c2ccccc2)ccc1C12CC3CC(CC(C3)C1)C2 | – | – | 5.86 | 6.13 | – | –
39 | CCCOc1ccc(-c2ccc(-c3ccccc3Cl)n2CC(=O)/N=C(/N)NCc2cccs2)cc1 | 10.7 | 0.7 | – | 6.12 | – | –
40 | N#CCCCNC(=N)NC(=O)Cn1c(-c2ccccc2)ccc1C12CC3CC(CC(C3)C1)C2 | – | – | 5.37 | 6.59 | – | –
41 | CCCOc1ccc(-c2ccc(-c3ccccc3Cl)n2CC(=O)NC(=N)NCc2ccc(F)c(F)c2F)cc1 | – | – | – | 6.69 | – | –
42 | N/C(=N/C(=O)Cn1c(-c2ccccc2)ccc1C12CC3CC(CC(C3)C1)C2)NCCc1cccs1 | 2 | – | 6.32 | – | 3 | –
43 | N/C(=N/C(=O)Cn1c(-c2ccccc2)ccc1C12CC3CC(CC(C3)C1)C2)NC1CCCCC1 | 18.7 | 7.5 | – | – | 50 | –
44 | N/C(=N\C(=O)Cn1c(-c2ccccc2)ccc1-c1ccccc1)NCc1ccc(F)c(F)c1F | – | – | – | – | – | 43
45 | N/C(=N/C(=O)Cn1c(-c2ccccc2)ccc1C12CC3CC(CC(C3)C1)C2)NCCCCO | 4.15 | 25 | – | – | 31 | –
46 | CCCOc1ccc(-c2ccc(-c3ccccc3Cl)n2CC(=O)NC(=N)NCCC(N)=O)cc1 | – | – | – | 6.76 | – | –
47 | Cc1nnc(CN/C(N)=N\C(=O)Cn2c(-c3ccccc3)ccc2C23CC4CC(CC(C4)C2)C3)o1 | 9.48 | – | 5.52 | – | 22 | –
48 | CCCOc1ccc(-c2ccc(-c3ccccc3Cl)n2CC(=O)/N=C(/N)N[C@H]2CC[C@H](C(=O)O)CC2)cc1 | 10.4 | 7.3 | – | 7.11 | – | –
